# Measured values: publication PMC4468408 (ACS Medicinal Chemistry Letters, 2015)
# Read-outs that look alike come from different tables or passages of the source.
# Assays:
# P-gp = P-gp substrate test in transfected MDCK cells; format: in vitro ADME
# major human CYP isozymes = assay: CYP inhibition; format: in vitro ADME
# in vitro metabolism = format: in vitro ADME
# [1] = oral dosing of SD rats: exposure, GABAA related effects, toxicity; format: in vivo, SD rat; settings: for effects attributable to GABAA binding (CNS effects): SD rats dosed orally; for toxicities observed at the maximum tolerated dose: SD rats, orally for seven consecutive days
# human tumor xenografts = settings: cited from earlier work
# [2] = brain total exposure in nude mice; settings: for AUC brain (AUC0–8h) / brain Cmax: sodium salts PO 30 mg/kg
# [3] = pharmacokinetics in Sprague-Dawley rat; format: in vivo; settings: IV 1 mg/kg, 10% 2-HP-β-CD
# [4] = Phase I; cited from earlier work
# [5] = stability in human S9 fraction; format: in vitro ADME
SMILES,substrate of P-gp (P-gp),CYP inhibition (major human CYP isozymes; concentrations up to 100 μM),in vitro metabolism (in vitro metabolism),effects attributable to GABAA binding (CNS effects) [1],toxicities observed at the maximum tolerated dose [1],tumor growth inhibition (human tumor xenografts; multiple xenograft efficacy models in immunocompromised mice),AUC brain (AUC0–8h) [2],brain Cmax [2],IC50 (major human CYP isozymes; human),CL [3],incidence of somnolence [4],tumor growth inhibition (human tumor xenografts; multiple human tumor xenograft models),stability in human S9 fraction [5],brain AUC reduction ([2]; compared with MLN8054)
O=C(O)c1ccc(Nc2ncc3c(n2)-c2ccc(Cl)cc2C(c2c(F)cccc2F)=NC3)cc1 [MLN8054 (8)],not a substrate of P-gp,no CYP inhibition is observed,predominantly through CYP1A2 and 3A4,reversible central nervous system (CNS) effects,myelosuppression and mucositis,"Significant tumor growth inhibition, with no overt toxicity",12500 ng·h/mL,2600 ng/mL,–,–,–,–,–,–
COc1cc(Nc2ncc3c(n2)-c2ccc(Cl)cc2C(c2c(F)cccc2OC)=NC3)ccc1C(=O)O [alisertib (10)],not a substrate of P-gp,–,low and is mediated through multiple CYP isoforms and UGTs,No effects attributable to GABAA binding were observed,myelosuppression and mucositis,–,2000 ng·h/mL,420 ng/mL,> 100 µM,10.4 mL min^–1 kg^–1,not dose limiting,significant tumor growth inhibition,–,–
O=C(O)c1ccc(Nc2ncc3c(n2)-c2ccc(Cl)cc2C(c2ccccc2F)=NC3)cc1 [compound 7],–,–,–,–,–,–,–,–,–,–,–,–,stable in human S9 fraction,–
COc1cccc(F)c1C1=NCc2cnc(Nc3ccc(C(=O)O)cc3)nc2-c2ccc(Cl)cc21 [compound 9],–,–,–,No effects attributable to GABAA binding were observed,–,–,3500 ng·h/mL,930 ng/mL,–,–,–,–,–,3 fold
